Assay results published in ChEMBL document CHEMBL4130372, “The antitrypanosomal and antitubercular activity of some nitro(triazole/imidazole)-based aromatic amines” (Eur J Med Chem, 2017).
Values after ≈ are worked out from the molar mass of the structure shown.

How the values were obtained:
Format in all cases: functional
[1] = tested on: Mycobacterium tuberculosis; experiment: Antitubercular activity against Mycobacterium tuberculosis FQ-R1 harboring gyrB D94N mutant after 5 days by fluorescence-based assay
[2] = tested on: Mycobacterium tuberculosis; experiment: Antitubercular activity against Mycobacterium tuberculosis RIF-R1 harboring rpoB S522L mutant after 5 days by fluorescence-based assay
[3] = tested on: Mycobacterium tuberculosis; experiment: Antitubercular activity against Mycobacterium tuberculosis INH-R1 harboring katG Y155 truncated mutant after 5 days by fluorescence-based assay

## O=[N+]([O-])c1ncn(CCCCNc2ncnc3ccccc23)n1
[1]
  MIC: >200 µM
[2]
  MIC: >200 µM
[3]
  MIC: 200 µM (≈ 62.7 µg/mL)

## O=[N+]([O-])c1nccn1CCCCNc1ccnc2c(Cl)cccc12
[1]
  MIC: >200 µM
[2]
  MIC: >200 µM
[3]
  MIC: >200 µM

## NNC(=O)c1ccncc1 [ISONIAZID]
[1]
  MIC: 0.35 µM (≈ 0.048 µg/mL)
[2]
  MIC: 0.31 µM (≈ 0.0425 µg/mL)
[3]
  MIC: >200 µM

## C[C@H]1COc2c(N3CCN(C)CC3)c(F)cc3c(=O)c(C(=O)O)cn1c23.C[C@H]1COc2c(N3CCN(C)CC3)c(F)cc3c(=O)c(C(=O)O)cn1c23.O [LEVOFLOXACIN]
[1]
  MIC: 14 µM
[2]
  MIC: 0.85 µM
[3]
  MIC: 1.1 µM

## CO[C@H]1/C=C/O[C@@]2(C)Oc3c(C)c(O)c4c(O)c(c(/C=N/N5CCN(C)CC5)c(O)c4c3C2=O)NC(=O)/C(C)=C\C=C\[C@H](C)[C@H](O)[C@@H](C)[C@@H](O)[C@@H](C)[C@H](OC(C)=O)[C@@H]1C [RIFAMPIN]
[1]
  MIC: >0.04 µM
[2]
  MIC: 7.2 µM (≈ 5.93 µg/mL)
[3]
  MIC: 0.012 µM (≈ 0.00988 µg/mL)
